The nature of one data set: in vitro. The conditions noted are these: human, liver microsomes. On the technique in general: Liver microsomes are vesicles of endoplasmic reticulum, rich in cytochrome P450 enzymes.
Data set [1] is described as follows: in vivo. The conditions noted are these: beagle, dog, iv, 0.4 mg/kg.
Description: Total AUC in beagle dog at 0.4 mg/kg, iv administered as cassette dosing by LC-MS/MS method
The nature of data set [2]: in vivo. The conditions noted are these: beagle, dog, iv, 0.4 mg/kg. The source holds these as a separate data set.
Description: Clearance in beagle dog at 0.4 mg/kg, iv administered as cassette dosing by LC-MS/MS method
Data set [3] can be described thus: in vivo. The conditions noted are these: beagle, dog, iv, 0.4 mg/kg. This is another data set of the same source.
Description: Half life in beagle dog at 0.4 mg/kg, iv cassette dosing by LC-MS/MS method
The nature of data set [4]: in vivo. The conditions noted are these: beagle, dog, iv, 0.4 mg/kg. This is another data set of the same source.
Description: Volume of distribution at steady state in beagle dog at 0.4 mg/kg, iv cassette dosing by LC-MS/MS method

Description for in vitro: Stability in human liver microsomes assessed as half life

For `COC(=O)Nc1cccc(NC(=O)[C@H](Cc2ccccc2)NC(=O)/C=C/c2cc(Cl)ccc2-n2cnnn2)c1`, the half-life (usually the time in which the quantity being followed falls by half) in the data set “in vitro” was > 1.67 h.

Regarding `O=C(/C=C/c1cc(Cl)ccc1-n1cnnn1)N[C@@H](Cc1ccccc1)C(=O)Nc1ccc(C(=O)O)cc1`, the AUC (as a rule, the area under the concentration-time curve, a measure of exposure) in the data set “in vivo [1]” worked out at 0.396 µM·h. In “in vivo [2]”, the clearance (usually the volume of plasma or blood freed of the substance per unit of time) is 16 mL/min/kg. For the same molecule, the values for the half-life in the data set “in vivo [3]” and in “in vitro” were 0.6 h and > 2 h, respectively. Further, in “in vivo [4]”, the Vd (usually a proportionality between amount in the body and measured concentration, not a real space) came out at 0.5 L/kg.

Consider `O=C(/C=C/c1cc(Cl)ccc1-n1cnnn1)N[C@@H](Cc1ccccc1)C(=O)Nc1ccc(-c2nc[nH]n2)cc1`, for which the half-life in the data set “in vitro” was > 1.67 h.

Take `O=C(/C=C/c1cc(Cl)ccc1-n1cnnn1)N[C@@H](Cc1ccccc1)C(=O)Nc1ccc(-n2cnnn2)cc1`: in “in vitro”, the half-life is > 1.67 h.

The record behind these values is ChEMBL document CHEMBL3751839, “Novel phenylalanine derived diamides as Factor XIa inhibitors” (Bioorg Med Chem Lett, 2016).
